Measured values taken from ChEMBL document CHEMBL2401634, “Discovery of novel indolinone-based, potent, selective and brain penetrant inhibitors of LRRK2” (Bioorg Med Chem Lett, 2013).
In brackets after ≈: the same amount, converted by molar mass. Activity calls are given as the source filed them. The rule behind the calls is not given here.

What was measured:
[1] = molecular target: Proto-oncogene tyrosine-protein kinase receptor Ret (Homo sapiens, UniProt P07949); assay: Inhibition of RET (unknown origin)
[2] = molecular target: Tyrosine-protein kinase Lck (Homo sapiens, UniProt P06239); assay: Inhibition of LCK (unknown origin)
Tyrosine-protein kinase Lck, sequence (P06239 whole entry): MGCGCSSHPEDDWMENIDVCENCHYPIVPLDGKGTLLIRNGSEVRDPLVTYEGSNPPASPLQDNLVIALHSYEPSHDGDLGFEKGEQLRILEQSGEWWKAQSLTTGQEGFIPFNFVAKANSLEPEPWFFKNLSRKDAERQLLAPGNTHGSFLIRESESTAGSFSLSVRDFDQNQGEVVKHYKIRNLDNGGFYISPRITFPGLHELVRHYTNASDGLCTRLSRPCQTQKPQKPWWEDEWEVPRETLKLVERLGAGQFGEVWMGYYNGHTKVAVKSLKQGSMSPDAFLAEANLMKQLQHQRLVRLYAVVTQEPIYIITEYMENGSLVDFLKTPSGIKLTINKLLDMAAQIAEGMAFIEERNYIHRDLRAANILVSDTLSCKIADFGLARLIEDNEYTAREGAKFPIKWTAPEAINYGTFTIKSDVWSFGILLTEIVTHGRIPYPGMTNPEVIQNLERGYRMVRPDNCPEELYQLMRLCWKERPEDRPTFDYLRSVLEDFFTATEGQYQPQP

[3] = molecular target: Platelet-derived growth factor receptor alpha (Homo sapiens, UniProt P16234); assay: Inhibition of PDGFRa (unknown origin)
Platelet-derived growth factor receptor alpha, sequence (P16234 whole entry): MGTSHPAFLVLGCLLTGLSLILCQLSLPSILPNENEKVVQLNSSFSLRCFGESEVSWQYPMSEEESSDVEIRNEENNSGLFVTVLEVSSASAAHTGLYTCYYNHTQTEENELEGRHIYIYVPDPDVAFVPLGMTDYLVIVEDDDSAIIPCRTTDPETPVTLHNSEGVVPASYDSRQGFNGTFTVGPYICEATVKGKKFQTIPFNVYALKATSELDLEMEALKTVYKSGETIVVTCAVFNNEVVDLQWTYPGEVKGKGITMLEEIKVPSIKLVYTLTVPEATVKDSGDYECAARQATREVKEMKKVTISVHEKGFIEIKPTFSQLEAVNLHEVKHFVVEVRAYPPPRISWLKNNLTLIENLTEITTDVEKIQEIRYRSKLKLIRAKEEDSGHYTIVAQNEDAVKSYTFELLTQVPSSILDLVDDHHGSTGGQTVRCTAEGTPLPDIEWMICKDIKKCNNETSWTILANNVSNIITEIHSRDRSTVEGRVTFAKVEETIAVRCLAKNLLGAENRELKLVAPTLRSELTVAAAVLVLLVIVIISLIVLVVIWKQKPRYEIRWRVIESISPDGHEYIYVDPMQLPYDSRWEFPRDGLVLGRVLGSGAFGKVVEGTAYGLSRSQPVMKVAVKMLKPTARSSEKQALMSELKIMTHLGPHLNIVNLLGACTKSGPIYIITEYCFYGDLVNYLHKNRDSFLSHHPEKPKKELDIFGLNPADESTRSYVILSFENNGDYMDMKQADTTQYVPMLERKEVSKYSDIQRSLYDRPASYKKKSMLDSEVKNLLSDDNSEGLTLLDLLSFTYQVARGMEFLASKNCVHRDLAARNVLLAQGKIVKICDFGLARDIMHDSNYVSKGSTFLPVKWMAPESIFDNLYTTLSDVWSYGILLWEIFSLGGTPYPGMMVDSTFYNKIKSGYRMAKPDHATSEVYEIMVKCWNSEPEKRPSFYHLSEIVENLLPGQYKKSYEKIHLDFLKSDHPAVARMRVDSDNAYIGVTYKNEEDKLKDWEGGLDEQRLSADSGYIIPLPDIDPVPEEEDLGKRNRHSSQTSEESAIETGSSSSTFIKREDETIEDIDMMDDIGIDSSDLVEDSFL

[4] = molecular target: ALK tyrosine kinase receptor (Homo sapiens, UniProt Q9UM73); assay: Inhibition of ALK (unknown origin)
ALK tyrosine kinase receptor, sequence (Q9UM73 whole entry): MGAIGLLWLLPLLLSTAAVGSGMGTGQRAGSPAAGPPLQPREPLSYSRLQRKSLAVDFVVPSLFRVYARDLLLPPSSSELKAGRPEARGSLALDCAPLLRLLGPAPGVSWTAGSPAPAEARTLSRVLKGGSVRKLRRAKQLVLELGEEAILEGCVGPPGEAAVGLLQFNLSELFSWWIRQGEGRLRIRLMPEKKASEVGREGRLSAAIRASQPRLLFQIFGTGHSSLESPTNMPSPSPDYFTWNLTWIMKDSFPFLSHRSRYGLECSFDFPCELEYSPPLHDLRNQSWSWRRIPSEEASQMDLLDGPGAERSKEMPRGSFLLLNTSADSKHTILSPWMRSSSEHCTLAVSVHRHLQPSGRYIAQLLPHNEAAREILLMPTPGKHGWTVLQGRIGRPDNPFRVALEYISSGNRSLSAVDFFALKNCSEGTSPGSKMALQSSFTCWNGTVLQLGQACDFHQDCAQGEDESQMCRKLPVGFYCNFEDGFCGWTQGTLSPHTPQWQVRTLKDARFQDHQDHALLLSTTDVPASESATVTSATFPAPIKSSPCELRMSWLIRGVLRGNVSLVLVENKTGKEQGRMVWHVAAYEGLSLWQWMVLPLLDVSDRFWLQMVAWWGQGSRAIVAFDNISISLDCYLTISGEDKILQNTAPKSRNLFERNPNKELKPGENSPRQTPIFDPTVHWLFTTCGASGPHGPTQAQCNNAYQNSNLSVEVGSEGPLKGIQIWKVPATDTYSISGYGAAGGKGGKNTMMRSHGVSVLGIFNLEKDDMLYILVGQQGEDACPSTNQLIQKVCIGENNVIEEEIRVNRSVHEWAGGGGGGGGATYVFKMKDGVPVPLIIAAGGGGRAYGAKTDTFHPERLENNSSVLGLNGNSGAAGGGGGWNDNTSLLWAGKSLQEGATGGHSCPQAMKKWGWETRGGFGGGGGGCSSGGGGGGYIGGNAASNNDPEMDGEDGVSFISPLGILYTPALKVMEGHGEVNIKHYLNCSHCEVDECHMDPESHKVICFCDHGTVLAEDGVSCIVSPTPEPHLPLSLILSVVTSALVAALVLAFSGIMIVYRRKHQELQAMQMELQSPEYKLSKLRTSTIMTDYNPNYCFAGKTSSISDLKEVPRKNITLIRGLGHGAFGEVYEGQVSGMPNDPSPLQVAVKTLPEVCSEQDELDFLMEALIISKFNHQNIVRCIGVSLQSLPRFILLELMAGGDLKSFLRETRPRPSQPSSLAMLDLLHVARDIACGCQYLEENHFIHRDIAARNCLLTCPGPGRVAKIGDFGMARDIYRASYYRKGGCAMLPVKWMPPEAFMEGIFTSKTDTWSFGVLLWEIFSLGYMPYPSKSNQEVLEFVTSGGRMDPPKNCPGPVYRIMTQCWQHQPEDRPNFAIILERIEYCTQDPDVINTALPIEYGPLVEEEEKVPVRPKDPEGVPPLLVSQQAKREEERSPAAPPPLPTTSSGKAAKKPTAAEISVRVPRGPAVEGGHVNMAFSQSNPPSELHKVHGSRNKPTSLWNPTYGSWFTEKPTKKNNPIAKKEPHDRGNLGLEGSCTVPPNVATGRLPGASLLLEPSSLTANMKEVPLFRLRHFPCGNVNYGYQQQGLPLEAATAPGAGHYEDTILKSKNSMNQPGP

[5] = molecular target: Vascular endothelial growth factor receptor 2 (Homo sapiens, UniProt P35968); assay: Inhibition of KDR (unknown origin)
Vascular endothelial growth factor receptor 2, sequence (P35968 whole entry): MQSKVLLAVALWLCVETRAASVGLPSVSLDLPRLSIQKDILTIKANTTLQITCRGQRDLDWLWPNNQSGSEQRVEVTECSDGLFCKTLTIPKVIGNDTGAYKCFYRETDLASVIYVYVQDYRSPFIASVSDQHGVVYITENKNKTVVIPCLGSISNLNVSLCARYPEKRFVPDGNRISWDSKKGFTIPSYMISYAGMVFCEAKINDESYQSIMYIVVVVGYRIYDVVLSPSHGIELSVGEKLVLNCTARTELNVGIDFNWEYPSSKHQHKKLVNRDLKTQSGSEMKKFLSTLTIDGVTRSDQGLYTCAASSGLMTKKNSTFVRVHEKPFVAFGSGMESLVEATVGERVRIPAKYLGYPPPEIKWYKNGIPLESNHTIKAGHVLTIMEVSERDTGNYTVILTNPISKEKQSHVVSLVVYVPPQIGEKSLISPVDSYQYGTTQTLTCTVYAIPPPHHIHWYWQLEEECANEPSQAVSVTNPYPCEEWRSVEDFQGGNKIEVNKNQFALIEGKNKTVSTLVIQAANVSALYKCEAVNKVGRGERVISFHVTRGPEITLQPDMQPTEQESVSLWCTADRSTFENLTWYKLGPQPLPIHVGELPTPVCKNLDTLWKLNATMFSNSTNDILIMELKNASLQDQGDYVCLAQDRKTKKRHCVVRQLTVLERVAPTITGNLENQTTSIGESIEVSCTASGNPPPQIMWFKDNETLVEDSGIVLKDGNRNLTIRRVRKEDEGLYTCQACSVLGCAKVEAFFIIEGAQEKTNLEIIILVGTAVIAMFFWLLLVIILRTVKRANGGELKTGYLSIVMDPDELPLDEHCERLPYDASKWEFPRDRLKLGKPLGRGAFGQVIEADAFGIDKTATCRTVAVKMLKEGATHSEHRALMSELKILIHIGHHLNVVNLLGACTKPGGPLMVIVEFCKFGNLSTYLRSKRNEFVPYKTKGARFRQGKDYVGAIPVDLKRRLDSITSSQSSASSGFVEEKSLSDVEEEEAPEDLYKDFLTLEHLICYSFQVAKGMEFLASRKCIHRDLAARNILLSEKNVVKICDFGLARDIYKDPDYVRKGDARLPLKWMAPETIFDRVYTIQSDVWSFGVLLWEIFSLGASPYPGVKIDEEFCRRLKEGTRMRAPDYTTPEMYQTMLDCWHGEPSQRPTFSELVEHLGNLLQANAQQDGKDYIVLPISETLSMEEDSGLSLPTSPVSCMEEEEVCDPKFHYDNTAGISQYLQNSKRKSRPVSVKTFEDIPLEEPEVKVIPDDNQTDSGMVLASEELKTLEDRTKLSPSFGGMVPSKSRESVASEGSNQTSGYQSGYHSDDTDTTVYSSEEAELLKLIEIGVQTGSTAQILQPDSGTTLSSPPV

[6] = molecular target: Leucine-rich repeat serine/threonine-protein kinase 2 (Homo sapiens, UniProt Q5S007); assay: Inhibition of human LRRK2 (1885 to 2132) using 5-Fluo-Ahx-RLGRDKYKTLRQIRQGNTK-OH as substrate after 60 mins by fluorescence assay
[7] = Solubility of the compound at pH 6.8; format: physicochemical; settings: buffer
Mus musculus [8] = assay: Binding affinity to LRRK2 in C57BL/6 mouse brain at 90 mg/kg, iv after 1 hr by pull down assay; format: functional, organism-based; parameters: dose 90 mg/kg
[9] = molecular target: Leucine-rich repeat serine/threonine-protein kinase 2 (Mus musculus) (UniProt Q5S006); assay: Binding affinity to LRRK2 in C57BL/6 mouse brain at 1 uM after 30 mins by competition pull down assay; format: tissue-based
Mus musculus [10] = assay: Binding affinity to LRRK2 in C57BL/6 mouse brain at 10 to 180 mg/kg, po after 2 hrs by pull down assay relative to vehicle-treated control; format: functional, organism-based
[11] = molecular target: Leucine-rich repeat serine/threonine-protein kinase 2 (Mus musculus) (UniProt Q5S006); assay: Binding affinity to LRRK2 in mouse C2C12 cells at 1 uM after 30 mins by competition pull down assay; format: cell-based
Mus musculus [12] = assay: Binding affinity to LRRK2 in po dosed C57BL/6 mouse brain after 2 hrs by pull down assay; format: functional, organism-based

Row | Compound | IC50 [1] [nM] | IC50 [2] [nM] | IC50 [3] [nM] | IC50 [4] [nM] | IC50 [5] [nM] | IC50 [6] [nM] | solubility [7] [µg/mL] | Activity [9] | Activity [11] | Activity (Mus musculus [12]) | Activity (Mus musculus [8]) | Activity (Mus musculus [10])
1 | COc1ccc2c(c1)/C(=C/c1cc3c([nH]1)CCN(C(=O)CCN)C3)C(=O)N2 | 4 | 140 | 120 | 370 | 8 | 11 | – | – | – | – | – | –
2 | COc1ccc2c(c1)/C(=C/c1[nH]c(C)c(C(=O)NCCCN)c1C)C(=O)N2 | < 1000 | < 1000 | < 1000 | < 1000 | < 1000 | 46 | – | – | – | – | – | –
3 | CC(=O)N1CCc2[nH]c(/C=C3\C(=O)Nc4ccc(OC(C)C)cc43)cc2C1 | 150 | 1100 | 1700 | 3300 | 900 | 4 | < 1 | – | – | – | – | –
4 | CC(=O)N1CCc2[nH]c(/C=C3\C(=O)Nc4ccc([N+](=O)[O-])cc43)cc2C1 | 73 | 1000 | 31 | > 10000 | 60 | < 3 | – | – | – | – | – | –
5 | COc1ccc2c(c1)/C(=C/c1cc3c([nH]1)CCN(C(=O)c1cnoc1C)C3)C(=O)N2 | 75 | 390 | 540 | 1400 | 16 | 7 | – | – | – | – | – | –
6 | COc1ccc2c(c1)/C(=C/c1[nH]c3c(c1Cl)CN(C(C)=O)CC3)C(=O)N2 | 34 | 1100 | – | > 10000 | 87 | 8 | – | – | – | – | – | –
7 | COc1ccc2c(c1)/C(=C/c1cc3c([nH]1)CCN(C(=O)N1CCOCC1)C3)C(=O)N2C | – | – | – | – | – | 150 | – | – | – | – | – | –
8 | COc1ccc2c(c1)/C(=C/c1cc3c([nH]1)CCN(C(C)=O)C3)C(=O)N2 | 54 | 6050 | 250 | 1500 | 210 | 14 | – | – | – | – | – | –
9 | CC(=O)N1CCc2[nH]c(/C=C3\C(=O)Nc4ccc(C#N)cc43)cc2C1 | 4 | 120 | < 3 | 1600 | 20 | 7 | – | – | – | – | – | –

Further lines, with some results ahead:

Row | IC50 [1] [nM] | IC50 [2] [nM] | IC50 [3] [nM] | IC50 [4] [nM] | IC50 [5] [nM] | IC50 [6] [nM] | solubility [7] [µg/mL] | Activity [9] | Activity [11] | Activity (Mus musculus [12]) | Compound | Activity (Mus musculus [8]) | Activity (Mus musculus [10])
10 | 25 | 120 | 150 | 660 | 5 | 3 | – | – | – | – | COc1ccc2c(c1)/C(=C/c1cc3c([nH]1)CCN(C(=O)N1CCOCC1)C3)C(=O)N2 | – | –
11 | 25 | 330 | 91 | 210 | 7 | 4 | – | – | – | – | CC(=O)Nc1ccc2c(c1)/C(=C/c1cc3c([nH]1)CCN(C(=O)N1CCOCC1)C3)C(=O)N2 | – | –
12 | 5 | 7 | 13 | 76 | 3 | < 3 | – | – | – | – | CN1CCC(Nc2ccc3c(c2)/C(=C/c2cc4c([nH]2)CCN(C(=O)N2CCOCC2)C4)C(=O)N3)CC1 | – | –
13 | 140 | 180 | 46 | > 10000 | 83 | < 3 | – | – | – | – | O=C1Nc2ccc(C(F)(F)F)cc2/C1=C/c1cc2c([nH]1)CCN(C(=O)N1CCOCC1)C2 | – | –
14 | 6 | 50 | 60 | 550 | 6 | 9 | 15 (≈ 35.6 µM) | Active | Active | Dose-dependent effect | COc1ccc2c(c1)/C(=C/c1cc3c([nH]1)CCN(C(=O)N1CCN(C)CC1)C3)C(=O)N2 | inactive | Active
15 | 300 | 360 | 60 | 9500 | 320 | 31 | – | – | – | – | CC(=O)N1CCc2[nH]c(/C=C3\C(=O)Nc4ccc(C(F)(F)F)cc43)cc2C1 | – | –
